{"source": "the supplement of paper PMC10307832", "assay_in_all_cases": "relative viability (nuclei count vs DMSO), 5 days (fraction); higher = more cells survive", "key": {"[1]": {"tested_on": "HARA", "in_short": "(§1)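 Lung cancer cell lines in 1536-well plates were dosed by pin tool the day after seeding, either with one drug alone or with a fixed anchor-drug dose plus five library-drug doses (not always all listed) in √10 steps. After 5 days, cells were fixed and their nuclei stained in one step (final 0.05% Triton X-100, 1% formaldehyde, 1 ug/ml Hoechst), then counted on 4× images. Relative viability is the nuclei count in treated wells divided by that in vehicle wells. Values are medians of duplicate plates.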"}, "[2]": {"tested_on": "NCI-H647", "in_short": "as §1"}, "[3]": {"tested_on": "SW 900", "in_short": "as §1"}, "[4]": {"tested_on": "A-427", "in_short": "as §1"}, "[5]": {"tested_on": "NCI-H1993", "in_short": "as §1"}, "[6]": {"tested_on": "EPLC-272H", "in_short": "as §1"}, "[7]": {"tested_on": "NCI-H1734", "in_short": "as §1"}, "[8]": {"tested_on": "NCI-H358", "in_short": "as §1"}, "[9]": {"tested_on": "NCI-H522", "in_short": "as §1"}, "[10]": {"tested_on": "LK-2", "in_short": "as §1"}, "[11]": {"tested_on": "RERF-LC-KJ", "in_short": "as §1"}, "[12]": {"tested_on": "NCI-H2405", "in_short": "as §1"}, "[13]": {"tested_on": "NCI-H460", "in_short": "as §1"}, "[14]": {"tested_on": "NCI-H1755", "in_short": "as §1"}, "[15]": {"tested_on": "EMC-BAC-2", "in_short": "as §1"}, "[16]": {"tested_on": "NCI-H1650", "in_short": "as §1"}, "[17]": {"tested_on": "COR-L 105", "in_short": "as §1"}, "[18]": {"tested_on": "HCC-44", "in_short": "as §1"}, "[19]": {"tested_on": "NCI-H596", "in_short": "as §1"}, "[20]": {"tested_on": "LU99A", "in_short": "as §1"}, "[21]": {"tested_on": "EKVX", "in_short": "as §1"}, "[22]": {"tested_on": "ChaGo-K-1", "in_short": "as §1"}}}
{"smiles": "Cc1cn(-c2cc(NC(=O)c3ccc(C)c(Nc4nccc(-c5cccnc5)n4)c3)cc(C(F)(F)F)c2)cn1", "note": "[Nilotinib] + O=C(CCCCCCC(=O)Nc1ccccc1)NO [Vorinostat] (partner 1 µM)", "values": [{"measurement": "relative viability", "setting": "[1]; first compound 0.001 µM", "result": 0.544}, {"measurement": "relative viability", "setting": "[1]; first compound 0.003162 µM", "result": 0.668}, {"measurement": "relative viability", "setting": "[1]; first compound 0.01 µM", "result": 0.507}, {"measurement": "relative viability", "setting": "[1]; first compound 0.03162 µM", "result": 0.401}, {"measurement": "relative viability", "setting": "[1]; first compound 0.1 µM", "result": 0.423}, {"measurement": "relative viability", "setting": "[2]; first compound 0.001 µM", "result": 0.433}, {"measurement": "relative viability", "setting": "[2]; first compound 0.003162 µM", "result": 0.671}, {"measurement": "relative viability", "setting": "[2]; first compound 0.01 µM", "result": 0.418}, {"measurement": "relative viability", "setting": "[2]; first compound 0.03162 µM", "result": 0.314}, {"measurement": "relative viability", "setting": "[2]; first compound 0.1 µM", "result": 0.245}, {"measurement": "relative viability", "setting": "[3]; first compound 0.003162 µM", "result": 0.456}, {"measurement": "relative viability", "setting": "[3]; first compound 0.01 µM", "result": 0.624}, {"measurement": "relative viability", "setting": "[3]; first compound 0.03162 µM", "result": 0.216}, {"measurement": "relative viability", "setting": "[3]; first compound 0.1 µM", "result": 0.368}, {"measurement": "relative viability", "setting": "[4]; first compound 0.001 µM", "result": 0.839}, {"measurement": "relative viability", "setting": "[4]; first compound 0.003162 µM", "result": 0.892}, {"measurement": "relative viability", "setting": "[4]; first compound 0.01 µM", "result": 0.935}, {"measurement": "relative viability", "setting": "[4]; first compound 0.03162 µM", "result": 0.963}, {"measurement": "relative viability", "setting": "[4]; first compound 0.1 µM", "result": 0.775}, {"measurement": "relative viability", "setting": "[5]; first compound 0.001 µM", "result": 0.6}, {"measurement": "relative viability", "setting": "[5]; first compound 0.003162 µM", "result": 0.655}, {"measurement": "relative viability", "setting": "[5]; first compound 0.01 µM", "result": 0.843}, {"measurement": "relative viability", "setting": "[5]; first compound 0.03162 µM", "result": 0.722}, {"measurement": "relative viability", "setting": "[5]; first compound 0.1 µM", "result": 0.497}, {"measurement": "relative viability", "setting": "[6]; first compound 0.001 µM", "result": 0.376}, {"measurement": "relative viability", "setting": "[6]; first compound 0.003162 µM", "result": 0.331}, {"measurement": "relative viability", "setting": "[6]; first compound 0.01 µM", "result": 0.37}, {"measurement": "relative viability", "setting": "[6]; first compound 0.03162 µM", "result": 0.407}, {"measurement": "relative viability", "setting": "[6]; first compound 0.1 µM", "result": 0.579}, {"measurement": "relative viability", "setting": "[7]; first compound 0.001 µM", "result": 0.761}, {"measurement": "relative viability", "setting": "[7]; first compound 0.003162 µM", "result": 0.803}, {"measurement": "relative viability", "setting": "[7]; first compound 0.01 µM", "result": 0.832}, {"measurement": "relative viability", "setting": "[7]; first compound 0.03162 µM", "result": 0.626}, {"measurement": "relative viability", "setting": "[7]; first compound 0.1 µM", "result": 0.371}, {"measurement": "relative viability", "setting": "[8]; first compound 0.001 µM", "result": 0.601}, {"measurement": "relative viability", "setting": "[8]; first compound 0.003162 µM", "result": 0.747}, {"measurement": "relative viability", "setting": "[8]; first compound 0.01 µM", "result": 0.834}, {"measurement": "relative viability", "setting": "[8]; first compound 0.03162 µM", "result": 0.411}, {"measurement": "relative viability", "setting": "[8]; first compound 0.1 µM", "result": 0.424}, {"measurement": "relative viability", "setting": "[9]; first compound 0.01 µM", "result": 1.01}, {"measurement": "relative viability", "setting": "[9]; first compound 0.03162 µM", "result": 0.749}, {"measurement": "relative viability", "setting": "[9]; first compound 0.1 µM", "result": 0.786}, {"measurement": "relative viability", "setting": "[10]; first compound 0.001 µM", "result": 0.261}, {"measurement": "relative viability", "setting": "[10]; first compound 0.003162 µM", "result": 0.23}, {"measurement": "relative viability", "setting": "[10]; first compound 0.01 µM", "result": 0.342}, {"measurement": "relative viability", "setting": "[10]; first compound 0.03162 µM", "result": 0.199}, {"measurement": "relative viability", "setting": "[10]; first compound 0.1 µM", "result": 0.27}, {"measurement": "relative viability", "setting": "[11]; first compound 0.001 µM", "result": 0.624}, {"measurement": "relative viability", "setting": "[11]; first compound 0.003162 µM", "result": 0.698}, {"measurement": "relative viability", "setting": "[11]; first compound 0.01 µM", "result": 0.734}, {"measurement": "relative viability", "setting": "[11]; first compound 0.03162 µM", "result": 0.568}, {"measurement": "relative viability", "setting": "[11]; first compound 0.1 µM", "result": 0.453}, {"measurement": "relative viability", "setting": "[12]; first compound 0.001 µM", "result": 0.946}, {"measurement": "relative viability", "setting": "[12]; first compound 0.003162 µM", "result": 0.927}, {"measurement": "relative viability", "setting": "[12]; first compound 0.03162 µM", "result": 0.763}, {"measurement": "relative viability", "setting": "[12]; first compound 0.1 µM", "result": 0.521}, {"measurement": "relative viability", "setting": "[13]; first compound 0.001 µM", "result": 0.428}, {"measurement": "relative viability", "setting": "[13]; first compound 0.003162 µM", "result": 0.996}, {"measurement": "relative viability", "setting": "[13]; first compound 0.01 µM", "result": 1.34}, {"measurement": "relative viability", "setting": "[13]; first compound 0.03162 µM", "result": 0.33}, {"measurement": "relative viability", "setting": "[13]; first compound 0.1 µM", "result": 0.535}, {"measurement": "relative viability", "setting": "[14]; first compound 0.001 µM", "result": 0.605}, {"measurement": "relative viability", "setting": "[14]; first compound 0.003162 µM", "result": 0.755}, {"measurement": "relative viability", "setting": "[14]; first compound 0.01 µM", "result": 0.695}, {"measurement": "relative viability", "setting": "[14]; first compound 0.03162 µM", "result": 0.59}, {"measurement": "relative viability", "setting": "[14]; first compound 0.1 µM", "result": 0.595}, {"measurement": "relative viability", "setting": "[15]; first compound 0.001 µM", "result": 0.369}, {"measurement": "relative viability", "setting": "[15]; first compound 0.003162 µM", "result": 0.339}, {"measurement": "relative viability", "setting": "[15]; first compound 0.01 µM", "result": 0.429}, {"measurement": "relative viability", "setting": "[15]; first compound 0.03162 µM", "result": 0.319}, {"measurement": "relative viability", "setting": "[15]; first compound 0.1 µM", "result": 0.33}, {"measurement": "relative viability", "setting": "[16]; first compound 0.001 µM", "result": 0.49}, {"measurement": "relative viability", "setting": "[16]; first compound 0.003162 µM", "result": 0.733}, {"measurement": "relative viability", "setting": "[16]; first compound 0.01 µM", "result": 0.746}, {"measurement": "relative viability", "setting": "[16]; first compound 0.03162 µM", "result": 0.488}, {"measurement": "relative viability", "setting": "[16]; first compound 0.1 µM", "result": 0.528}, {"measurement": "relative viability", "setting": "[17]; first compound 0.001 µM", "result": 0.744}, {"measurement": "relative viability", "setting": "[17]; first compound 0.003162 µM", "result": 1.09}, {"measurement": "relative viability", "setting": "[17]; first compound 0.01 µM", "result": 0.81}, {"measurement": "relative viability", "setting": "[17]; first compound 0.03162 µM", "result": 0.76}, {"measurement": "relative viability", "setting": "[17]; first compound 0.1 µM", "result": 0.672}, {"measurement": "relative viability", "setting": "[18]; first compound 0.001 µM", "result": 1.07}, {"measurement": "relative viability", "setting": "[18]; first compound 0.003162 µM", "result": 1.06}, {"measurement": "relative viability", "setting": "[18]; first compound 0.01 µM", "result": 1.09}, {"measurement": "relative viability", "setting": "[18]; first compound 0.1 µM", "result": 1.07}, {"measurement": "relative viability", "setting": "[19]; first compound 0.001 µM", "result": 0.518}, {"measurement": "relative viability", "setting": "[19]; first compound 0.003162 µM", "result": 0.455}, {"measurement": "relative viability", "setting": "[19]; first compound 0.01 µM", "result": 0.651}, {"measurement": "relative viability", "setting": "[19]; first compound 0.03162 µM", "result": 0.532}, {"measurement": "relative viability", "setting": "[19]; first compound 0.1 µM", "result": 0.498}, {"measurement": "relative viability", "setting": "[20]; first compound 0.001 µM", "result": 0.429}, {"measurement": "relative viability", "setting": "[20]; first compound 0.003162 µM", "result": 0.506}, {"measurement": "relative viability", "setting": "[20]; first compound 0.01 µM", "result": 0.468}, {"measurement": "relative viability", "setting": "[20]; first compound 0.03162 µM", "result": 0.411}, {"measurement": "relative viability", "setting": "[20]; first compound 0.1 µM", "result": 0.353}, {"measurement": "relative viability", "setting": "[21]; first compound 0.001 µM", "result": 0.65}, {"measurement": "relative viability", "setting": "[21]; first compound 0.003162 µM", "result": 0.879}, {"measurement": "relative viability", "setting": "[21]; first compound 0.01 µM", "result": 0.704}, {"measurement": "relative viability", "setting": "[21]; first compound 0.03162 µM", "result": 0.55}, {"measurement": "relative viability", "setting": "[21]; first compound 0.1 µM", "result": 0.718}, {"measurement": "relative viability", "setting": "[22]; first compound 0.001 µM", "result": 0.654}, {"measurement": "relative viability", "setting": "[22]; first compound 0.003162 µM", "result": 0.979}, {"measurement": "relative viability", "setting": "[22]; first compound 0.01 µM", "result": 0.804}, {"measurement": "relative viability", "setting": "[22]; first compound 0.03162 µM", "result": 0.733}, {"measurement": "relative viability", "setting": "[22]; first compound 0.1 µM", "result": 0.4}]}
